Here are results for three compounds from paper PMC7200709, “The mechanism of loop C-neonicotinoid interactions at insect nicotinic acetylcholine receptor α1 subunit predicts resistance emergence in pests” (Scientific Reports, 2020).

Where two headings read alike, the source gives them in different places.

The target in assay [1] is T1, (Dα1)2(β2)3 nAChR (Drosophila melanogaster, UniProt P09478+P09484).
T1 construct: gene nAChRalpha1; fruitfly Dα1 and chicken β2 cDNAs in pcDNA3.1(+), cRNA mixed 1:5 (Dα1:β2), Xenopus laevis oocytes; hybrid pentamer with Dα1/β2 interfaces
T1 sequence (P09478 22-567): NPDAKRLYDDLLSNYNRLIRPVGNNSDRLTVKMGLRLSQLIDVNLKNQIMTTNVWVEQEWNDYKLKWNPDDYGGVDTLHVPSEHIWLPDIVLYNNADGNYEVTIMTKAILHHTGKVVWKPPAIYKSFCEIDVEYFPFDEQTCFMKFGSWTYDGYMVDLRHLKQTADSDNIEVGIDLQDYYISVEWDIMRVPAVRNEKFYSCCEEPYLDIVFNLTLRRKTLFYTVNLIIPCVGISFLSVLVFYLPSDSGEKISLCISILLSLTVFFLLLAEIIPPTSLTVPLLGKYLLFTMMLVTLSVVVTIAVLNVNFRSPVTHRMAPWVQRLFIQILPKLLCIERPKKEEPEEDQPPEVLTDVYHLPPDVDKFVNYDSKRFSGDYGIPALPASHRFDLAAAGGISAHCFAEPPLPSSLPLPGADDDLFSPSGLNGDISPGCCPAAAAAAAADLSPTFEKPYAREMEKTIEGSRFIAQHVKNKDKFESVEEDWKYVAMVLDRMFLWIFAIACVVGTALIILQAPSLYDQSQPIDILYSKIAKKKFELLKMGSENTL
T1 sequence (P09484 19-491): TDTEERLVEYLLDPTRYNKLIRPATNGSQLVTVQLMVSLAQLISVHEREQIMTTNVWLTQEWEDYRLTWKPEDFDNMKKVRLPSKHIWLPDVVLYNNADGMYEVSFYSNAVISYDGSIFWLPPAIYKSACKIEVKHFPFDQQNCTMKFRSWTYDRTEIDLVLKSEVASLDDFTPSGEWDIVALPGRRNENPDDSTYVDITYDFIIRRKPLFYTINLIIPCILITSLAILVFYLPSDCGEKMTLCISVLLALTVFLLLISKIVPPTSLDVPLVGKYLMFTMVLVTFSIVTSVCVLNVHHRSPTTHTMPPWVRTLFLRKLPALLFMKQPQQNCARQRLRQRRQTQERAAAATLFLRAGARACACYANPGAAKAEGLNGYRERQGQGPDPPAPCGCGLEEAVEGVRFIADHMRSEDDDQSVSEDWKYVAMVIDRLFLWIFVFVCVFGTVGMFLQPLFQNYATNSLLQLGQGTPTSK
Kind of assay: two-electrode voltage clamp, Xenopus oocytes, agonist concentration-response. Type of assay: cell-based. The source says:
two-electrode voltage clamp, Xenopus oocytes, agonist concentration-response on (Dα1)2(β2)3 nAChR

The target of assay [2] is T2, (Dα1)3(β2)2 nAChR (Drosophila melanogaster, UniProt P09478+P09484).
T2 construct: gene nAChRalpha1; fruitfly Dα1 and chicken β2 cDNAs in pcDNA3.1(+), cRNA mixed 5:1 (Dα1:β2), Xenopus laevis oocytes; hybrid pentamer with Dα1/Dα1 and Dα1/β2 interfaces
T2 sequence (P09478 22-567): as the sequence (P09478 22-567) above
T2 sequence (P09484 19-491): as the sequence (P09484 19-491) above
The assay is described as above. Type of assay: cell-based. The source says:
two-electrode voltage clamp, Xenopus oocytes, agonist concentration-response on (Dα1)3(β2)2 nAChR

Take `CC(=O)OCC[N+](C)(C)C` [ACh]: the figures for the EC50 in assay [1] (read-out: (Dα1)2(β2)3 / pEC50 (converted)) and in assay [2] (read-out: (Dα1)3(β2)2 / pEC50 (converted)) were 162 nM and 155 nM, respectively.
For `O=[N+]([O-])NC1=NCCN1Cc1ccc(Cl)nc1` [imidacloprid], the results for the EC50 in assay [1] (read-out: Imidacloprid / (Dα1)2(β2)3 / pEC50 (converted)) and in assay [2] (read-out: Imidacloprid / (Dα1)3(β2)2 / pEC50 (converted)) were 112 nM and 162 nM, respectively.
On to `N#C/N=C1\SCCN1Cc1ccc(Cl)nc1` [thiacloprid], for which the results for the EC50 in assay [1] (read-out: Thiacloprid / (Dα1)2(β2)3 / pEC50 (converted)) and in assay [2] (read-out: Thiacloprid / (Dα1)3(β2)2 / pEC50 (converted)) were 24.5 nM and 45.7 nM, respectively.
